Assay results reported in publication PMC9021288 (Nature Communications, 2022).
Values joined by “and” are separate entries in the source; they are usually repeats but may differ in a detail not shown here. Identical values can stand only once. Like-named read-outs stand apart in the source and are kept apart here.

How the values were obtained:
[1] = tested on: P. falciparum NF54 asexual blood-stage parasites; design: method as in earlier work; details: ref 15 (Schalkwijk et al.); cited from earlier work
[2] = tested on: P. falciparum NF54 rings and schizonts; test: Stage-specific activity on synchronized ring and schizont cultures; type: cell-based, Plasmodium falciparum
Procedure: Asynchronous NF54 parasites were cultured in a semi-automated shaker system[63] and synchronized once with 5% D-sorbitol. […] This yielded a parasite culture with ≥ 90% rings. To assess the schizont-stage activity of MMV693186, the initial synchronized culture was treated again with sorbitol 7 h later. Subsequently, parasites were cultured for another 17 h to yield a parasite culture of ≥ 90% early schizont stages. The ring and schizont synchronized cultures were diluted to 0.5% and then incubated with either 50 nM DHA or 50 nM MM693183 for 24 h in duplicate. Subsequently, the drug was washed out and parasites were cultured for another 24 h. Parasitemia was determined using Giemsa-stained thin smears at 0 h, 24 h, and 48 h after drug exposure.

[3] = Pharmacokinetics in dogs (cassette dosing); type: in vivo, Beagle dogs
Procedure: Subsequently, samples were spun down at 1640 g for 5-10 min at 4 °C within 30 min after collection and plasma was collected. […] Urine was collected following an intravenous dose in both rat and dog, allowing renal clearance to be estimated. Human renal clearance was estimated from dog renal clearance as previously described[40] and other human PK parameters were predicted using allometric scaling and/or in vitro clearance data. PK parameters were calculated by naïve pooled approach using WinNonLin software (Phoenix, version 6.3).

AcAS-cKD P. falciparum = test: Drug sensitivity of AcAS conditional knockdown parasites; type: cell-based, Plasmodium falciparum; details: […] vs 500 nM aTc
Procedure: Replication assays were performed using a SYBR Green method as described previously. Briefly, asynchronous parasites were diluted to 0.83% parasitemia, 3% hematocrit in 30 µl medium, and added to 30 µl of diluted compounds in medium (0.1% DMSO final concentration) in black 384-wells plates. After a 72-h incubation, 30 µl of SYBR Green diluted in lysis buffer was added according to the manufacturer’s protocol (Life Technologies). Fluorescence intensity was measured on a BioTek Synergy 2 Plate Reader after 1-h incubation and was normalized to a DMSO control (100% growth) and DHA- or epoxomicin-treatment (no growth). […] Parasite survival was assessed by flow cytometry on an Accuri C6 (BD Biosciences) with BD C6 Plus software using SYBR Green and MitoTracker Deep Red FM (Life Technologies) as nuclear stain and vital dye, respectively, and data were analyzed using FlowJo (10.5.0). […] Luminescence was measured after 72 h using the Renilla-Glo(R) Luciferase Assay System (Promega E2750) and the GlomAX® Discover Multimode Microplate Reader (Promega). The luminescence values were normalized to DMSO vehicle (100% growth) and 200 nM chloroquine-treated (no growth) samples as controls.

[4] = tested on: P. falciparum field isolates from Uganda; test: Ex vivo growth inhibition assay, Uganda field isolates; type: cell-based, Plasmodium falciparum; details: N = 230 isolates
Procedure: An ex vivo growth inhibition assay was performed on fresh clinical P. falciparum isolates in Uganda. […] Parasite density was quantified by fluorescence after incubation with SYBR Green lysis buffer measured on a BMG Fluostar Optima plate reader, as previously described.

CC(CNC(=O)C(O)C(C)(C)CO)NC(=O)CCc1ccccc1F (stereo in doubt) [MMV689258]
IC50 [1]: 5 nM

C[C@@H](CNC(=O)[C@H](O)C(C)(C)CO)NC(=O)c1cc(F)c(F)cc1F [MMV693183]
activity against asexual stages ([2]; 50 nM, 24 h): active against both early and late asexual blood stages | Parasitemia, rings culture ([2]; Time (h) 0): 0.4 | Parasitemia, rings culture ([2]; Time (h) 24): 0 | Parasitemia, schizonts culture ([2]; Time (h) 0): 0.2 | Parasitemia, schizonts culture ([2]; Time (h) 24): 0 | Observed hepatic/ predicted hepatic ([3]; Dog): 0.95 | Observed total-renal = observed hepatic ([3]; Dog): 10.5 mL/min/kg | Predicted hepatic plasma clearance ([3]; Dog): 11.1 mL/min/kg | Norm. conc i.v. ([3]; Dog, Time (hrs) 0.083333): 1180 ng/mL and 892 ng/mL and 1160 ng/mL | Norm. conc i.v. ([3]; Dog, Time (hrs) 0.25): 732 ng/mL and 660 ng/mL and 906 ng/mL | Norm. conc i.v. ([3]; Dog, Time (hrs) 0.5): 414 ng/mL and 439 ng/mL and 345 ng/mL | Norm. conc i.v. ([3]; Dog, Time (hrs) 1): 166 ng/mL and 228 ng/mL and 178 ng/mL | Norm. conc i.v. ([3]; Dog, Time (hrs) 2): 52.9 ng/mL and 68.5 ng/mL and 55.6 ng/mL | Norm. conc i.v. ([3]; Dog, Time (hrs) 4): 28.7 ng/mL and 29.7 ng/mL and 29.8 ng/mL | Norm. conc i.v. ([3]; Dog, Time (hrs) 8): 14.6 ng/mL and 21.2 ng/mL and 17.8 ng/mL | Norm. conc i.v. ([3]; Dog, Time (hrs) 24): 2 ng/mL and 3.19 ng/mL and 2.05 ng/mL | Norm. conc p.o. ([3]; Dog, Time (hrs) 0.25): 815 ng/mL and 580 ng/mL and 439 ng/mL | Norm. conc p.o. ([3]; Dog, Time (hrs) 0.5): 485 ng/mL and 365 ng/mL and 280.5 ng/mL | Norm. conc p.o. ([3]; Dog, Time (hrs) 1): 132.5 ng/mL and 118.5 ng/mL and 171.5 ng/mL | Norm. conc p.o. ([3]; Dog, Time (hrs) 2): 29.9 ng/mL and 28.05 ng/mL and 47.05 ng/mL | Norm. conc p.o. ([3]; Dog, Time (hrs) 4): 15.6 ng/mL and 14.15 ng/mL and 21.05 ng/mL | Norm. conc p.o. ([3]; Dog, Time (hrs) 24): 1 ng/mL and 1.115 ng/mL | AUC0-∞ ([3]; i.v. 1 mg/kg, mean): 1451 ng·h/mL | AUClast ([3]; i.v. 1 mg/kg, mean): 1423 ng·h/mL | Cmax ([3]; i.v. 1 mg/kg, mean): 1077 ng/mL | Vss_obs ([3]; i.v. 1 mg/kg, mean): 1.79 L/kg | CLtotal ([3]; i.v. 1 mg/kg, mean, 1 mg/kg): 11.5 mL/min/kg and 11.52 mL/min/kg | T1/2 ([3]; i.v. 1 mg/kg, mean, 1 mg/kg): 4.2 h and 4.23 h | AUC0-∞ ([3]; p.o. 2 mg/kg, mean): 1902 ng·h/mL | AUClast ([3]; p.o. 2 mg/kg, mean): 1844 ng·h/mL | Cmax ([3]; p.o. 2 mg/kg, mean): 1286 ng/mL | T1/2 ([3]; p.o. 2 mg/kg, mean): 2.93 h | F ([3]; p.o. 2 mg/kg, mean, 2 mg/kg): 64% and 63.7% | Tmax ([3]; p.o. 2 mg/kg, mean, 2 mg/kg): 0.333 h | IC50 decrease upon knockdown (low aTc) (AcAS-cKD P. falciparum): 5 fold | IC50 ([4]; read-out: IC50 maximum): 11 nM | IC50 ([4]; read-out: IC50 minimum): 0.3 nM
